From patent publication US9969726B2, “Metabotropic glutamate receptor negative allosteric modulators (NAMS) and uses thereof” (Sanford-Burnham Medical Research Institute, priority 2014, dated 2018)
Where two headings read alike, the source gives them in different places.

How the values were obtained:
[1] = Microsomal stability in vitro assay; assay type: in vitro ADME; details: rat liver microsomes 1 mg/mL, 4 μM compound, 2 mM NADPH
Description: Pooled rat liver microsomes (BD Biosciences, #452701) were preincubated with test compounds at 37.5° C. for 5 min in the absence of NADPH. The reaction was initiated by addition of NADPH and incubated under the same conditions. The final incubation concentrations were 4 μM test compound, 2 mM NADPH, and 1 mg/mL (total protein) liver microsomes in phosphate-buffered saline (PBS) at pH 7.4. One aliquot (100 μL) of the incubation mixture was withdrawn at 15 min time points and combined immediately with 100 μL of ACN/MeOH. After mixing, the sample was centrifuged at approximately 13000 rpm for 12 min. The supernatant was filtered and transferred into an autosampler vial and the amount of test compound was quantified using a Shimadzu LCMS 2010EV mass spectrometer. The change of the AUC (area under the curve) of the parent compound as a function of time was used as a measure of microsomal stability. Test compounds were run in duplicate with a positive control.

rat mGlu3 receptor = rat mGlu3 receptor (Rattus norvegicus (Rat), UniProt P31422); experiment: mGlu3 in vitro GIRK thallium flux assay; assay type: cell-based; details: NAM; 2.5 min compound incubation; EC80 glutamate; HEK-293 GIRK cells
How it was run: (§1)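 Cells expressing rat mGlu2 or mGlu3 with GIRK, plated overnight at 37 °C. Test compounds (0.3% DMSO, 10-point 1:3 series) preincubated 2.5 or 60 min, then thallium buffer plus EC80 glutamate added. Fluorescence slope 5–15 s after addition, normalised to vehicle and maximal agonist, fitted by four-parameter logistic.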

rat mGlu2 receptor = rat mGlu2 receptor (Rattus norvegicus (Rat), UniProt P31421); experiment: mGlu2 in vitro GIRK thallium flux assay; assay type: cell-based; details: NAM, EC80 glutamate, HEK-293 GIRK cells
How it was run: as §1

[2] = PK: brain and plasma levels collected after the FST; assay type: in vivo, rat; details: Wistar
Description: After the habituation swim and 24 hours prior to the test swim, rats were administered one of three doses of a mGlu2/3 NAM, with doses and pretreatment time based on maximal brain penetration as determined by PK studies for each compound. Blood and brain tissue were collected immediately after the FST and the PK properties of each compound were analyzed together with FST behavior. The modified forced swim test was carried out as described previously in Cryan et al., 2003. Briefly, rats were taken from the vivarium and immediately placed individually for 15 min in Pyrex cylinders (21×46 cm; Fisher Scientific, Tustin, Calif.), which were filled with water to a depth of 30 cm. The testing room was bright, and two bright (60-watt) lamps provided extra illumination above the cylinders. The rats were removed 15 min later, dried, and placed in their home cage. Twenty-four hours after their first exposure, the animals were again placed in the swim apparatus for 5 min, and behaviors were monitored from above by video camera for subsequent analysis. The rater of the behavioral patterns was blind with respect to the experimental conditions being scored. A time sampling technique was employed whereby the predominant behavior in each 5-sec period of the 300-sec test was recorded. Climbing behavior consisted of upward-directed movements of the forepaws along the side of the swim chamber. Swimming behavior was defined as movement (usually horizontal) throughout the swim chamber, which also included crossing into another quadrant. Immobility was assigned when no additional activity was observed other than that required to keep the rat's head above water.

[3] = Plasma stability in vitro assay; assay type: in vitro ADME; details: rat plasma, 100 μM, 37.5° C.
Description: A 20 μL aliquot of a 10 mM solution in DMSO of the test compound was added to 2.0 mL of heparinized rat plasma (Lampire, P1-150N) to obtain a 100 μM final solution. The mixture was incubated for 1 h at 37.5° C. Aliquots of 100 μL were taken at 15 min intervals and diluted with 100 μL of MeOH/ACN. After mixing, the sample was centrifuged at approximately 13000 rpm for 12 min. The supernatant was filtered and transferred into an autosampler vial and the amount of test compound was quantified using the Shimadzu LCMS-2010EV system. The change of the AUC of the parent compound in function of time was used as a measure of plasma stability.

Male Wistar rats = experiment: Forced Swim Test (FST); assay type: in vivo; details: rat; immobility and swimming; FIG. 1
Description: Male Wistar rats (Charles River, Hollister, Calif.), weighing 175-225 g (Charles River, Portage, Ind.) used for the forced swim test study were housed in pairs with food and water available ad libitum, except during testing, in a temperature and humidity controlled vivarium (21° C.). Rats were maintained on a 12-hour reverse light-dark cycle with lights on at 6 pm. All experimental procedures occurred during the dark cycle, were approved by the Institutional Animal Care and Use Committee of the Scripps Research Institute, and were in accordance with the Association for the Assessment and Accreditation of Laboratory Animal Care (AAALAC) guidelines. […]
After the habituation swim and 24 hours prior to the test swim, rats were administered one of three doses of a mGlu2/3 NAM, with doses and pretreatment time based on maximal brain penetration as determined by PK studies for each compound. Blood and brain tissue were collected immediately after the FST and the PK properties of each compound were analyzed together with FST behavior. […] Twenty-four hours after their first exposure, the animals were again placed in the swim apparatus for 5 min, and behaviors were monitored from above by video camera for subsequent analysis. The rater of the behavioral patterns was blind with respect to the experimental conditions being scored. […]

R6/2 mice = details: 20 mg/kg daily subcutaneous injection beginning at 4 weeks; cited from earlier work
[4] = test system: cultured spinal cord astrocytes; details: astrocytes from wild-type and mGlu2 knockout mice, not mGlu3 knockout mice; cited from earlier work
reserpine-treated rat = details: cited from earlier work
SMI-32+ motor neurons = details: abrogated by anti-GDNF antibodies; cited from earlier work
SOD1G93A mice = details: continuous treatment with 1 or 5 mg/kg/day; cited from earlier work
[5] = 2.5 min compound incubation, read-out: mGlu2 EC50 (μM) (2.5 min)
[6] = mGlu2 EC50 (μM) (60 min), 60 min compound incubation
[7] = rat brain tissue, read-out: Brain
[8] = read-out: mGlu2 EC50 (μM) (60 min), 60 min compound incubation

Sequence of rat mGlu2 receptor (P31421 19-872): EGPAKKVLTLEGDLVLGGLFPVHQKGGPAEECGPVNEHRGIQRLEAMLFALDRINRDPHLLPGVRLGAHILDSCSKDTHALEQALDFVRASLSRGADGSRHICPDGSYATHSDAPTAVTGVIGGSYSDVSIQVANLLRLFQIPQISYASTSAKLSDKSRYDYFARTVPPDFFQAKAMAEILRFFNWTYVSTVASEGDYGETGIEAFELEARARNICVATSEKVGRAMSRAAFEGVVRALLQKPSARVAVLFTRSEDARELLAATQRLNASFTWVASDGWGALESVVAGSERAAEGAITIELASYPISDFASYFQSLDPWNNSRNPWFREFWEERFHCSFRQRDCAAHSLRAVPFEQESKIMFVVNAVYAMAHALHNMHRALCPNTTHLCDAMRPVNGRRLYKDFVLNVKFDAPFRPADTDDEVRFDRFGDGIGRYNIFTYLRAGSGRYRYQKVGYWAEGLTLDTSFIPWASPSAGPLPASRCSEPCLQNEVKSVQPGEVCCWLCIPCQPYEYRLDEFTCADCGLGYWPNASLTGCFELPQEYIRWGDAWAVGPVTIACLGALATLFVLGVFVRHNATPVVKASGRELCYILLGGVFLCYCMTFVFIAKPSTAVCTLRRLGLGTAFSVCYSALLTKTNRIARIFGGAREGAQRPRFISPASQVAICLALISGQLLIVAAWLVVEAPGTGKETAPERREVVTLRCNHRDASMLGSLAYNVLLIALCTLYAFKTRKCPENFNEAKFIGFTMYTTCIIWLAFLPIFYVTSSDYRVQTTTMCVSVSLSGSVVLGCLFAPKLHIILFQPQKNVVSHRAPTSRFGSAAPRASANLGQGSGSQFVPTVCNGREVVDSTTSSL
Sequence of rat mGlu3 receptor (P31422 23-879): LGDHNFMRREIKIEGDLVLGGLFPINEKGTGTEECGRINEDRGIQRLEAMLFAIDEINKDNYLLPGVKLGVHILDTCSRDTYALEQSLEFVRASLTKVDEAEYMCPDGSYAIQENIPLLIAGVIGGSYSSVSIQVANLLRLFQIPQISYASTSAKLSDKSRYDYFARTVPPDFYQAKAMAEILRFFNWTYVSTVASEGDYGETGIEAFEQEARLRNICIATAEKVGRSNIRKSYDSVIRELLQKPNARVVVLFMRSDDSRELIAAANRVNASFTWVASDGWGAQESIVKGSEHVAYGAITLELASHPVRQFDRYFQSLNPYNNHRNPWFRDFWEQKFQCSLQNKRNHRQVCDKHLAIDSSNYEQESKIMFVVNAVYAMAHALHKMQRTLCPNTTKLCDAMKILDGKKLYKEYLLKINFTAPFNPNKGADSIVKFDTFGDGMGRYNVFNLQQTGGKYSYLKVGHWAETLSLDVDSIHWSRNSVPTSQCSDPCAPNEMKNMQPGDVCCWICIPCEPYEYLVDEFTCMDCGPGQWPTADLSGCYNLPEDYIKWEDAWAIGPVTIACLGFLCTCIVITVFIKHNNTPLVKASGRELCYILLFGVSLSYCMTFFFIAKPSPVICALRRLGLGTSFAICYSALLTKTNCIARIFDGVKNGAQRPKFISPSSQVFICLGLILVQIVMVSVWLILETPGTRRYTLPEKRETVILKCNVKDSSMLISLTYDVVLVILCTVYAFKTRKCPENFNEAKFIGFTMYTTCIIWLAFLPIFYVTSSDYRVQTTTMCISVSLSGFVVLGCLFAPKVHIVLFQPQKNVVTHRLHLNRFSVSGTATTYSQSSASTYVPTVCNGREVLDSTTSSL

Structure (SMILES) | Microsomal Stability, Percent Remaining @ 1 hour [1] [%] | EC50 (rat mGlu3 receptor) [µM] | EC50 (rat mGlu2 receptor; [5]) [µM] | EC50 (rat mGlu2 receptor; [6]) [µM] | concentration at 24 h [2, 7] [nM] | concentration at 24 h ([2]; rat plasma, read-out: Plasma) [nM] | Plasma Stability, Percent Remaining @ 1 hour [3] [%] | EC50 (rat mGlu2 receptor; [8]) [µM] | antidepressant activity in the Forced Swim Test (Male Wistar rats) | phenotype in R6/2 mice (R6/2 mice) | GDNF levels [4] | locomotor activity (reserpine-treated rat; intracerebroventricular 1, 5, 10, 20 nmol/2 μl, reserpine 5 mg/kg ip) | reversal of reserpine-induced akinesia (reserpine-treated rat; systemic 0.1, 1, 10 mg/kg ip) | protection of motor neurons against excitotoxic death (SMI-32+ motor neurons) | neurological disability (SOD1G93A mice)
O=C(O)c1cc(F)cc(-c2cccc(-c3nsc(-c4ccoc4)n3)c2)c1 [Example 43, 5-Fluoro-3′-(5-(furan-3-yl)-1,2,4-thiadiazol-3-yl)biphenyl-3-carboxylic Acid] | 66 | 3.43 | 0.17 | 0.11 | 210 ± 40 | 4690 ± 780 | 95 | – | – | – | – | – | – | – | –
O=C(O)c1cccc(-c2cccc(-c3cc(-c4ccccc4)on3)c2)c1 [Example 49, 3′-(5-Phenylisoxazol-3-yl)-[1,1′-biphenyl]-3-carboxylic Acid] | – | > 10 | > 10 | > 30 | 500 ± 50 | 19200 ± 2100 | – | – | – | – | – | – | – | – | –
O=C(O)c1cc(-c2cccc(-c3nc(-c4ccc(C(F)(F)F)nc4)cc(C(F)(F)F)n3)c2)ccc1F [Example 73, 4-Fluoro-3′-(4-(trifluoromethyl)-6-(6-(trifluoromethyl)pyridin-3-yl)pyrimidin-2-yl)biphenyl-3-carboxylic Acid] | – | 1.18 | 0.82 | – | 140 ± 90 | 9010 ± 2230 | – | 0.17 | – | – | – | – | – | – | –
O=C(O)c1cc(-c2cccc(-c3nc(-c4ccoc4)cc(C(F)(F)F)n3)c2)ccc1F [Example 94, 4-Fluoro-3′-(4-(furan-3-yl)-6-(trifluoromethyl)pyrimidin-2-yl)biphenyl-3-carboxylic Acid] | – | 0.28 | – | – | 490 ± 60 | 15900 ± 950 | – | 0.14 | – | – | – | – | – | – | –
Cc1cc2c(cc1C(F)(F)F)NC(=O)CC(c1cccc(S(=O)(=O)c3ncccn3)c1)=N2 [Example 137, 7-Methyl-4-(3-(pyrimidin-2-ylsulfonyl)phenyl)-8-(trifluoromethyl)-1H-benzo[b][1,4]diazepin-2(3H)-one] | 68 | 0.3 | 0.45 | – | – | – | 66 | 0.06 | – | – | – | – | – | – | –
O=C1CC(c2cccc(-c3cccnc3)c2)=Nc2ccc(Br)cc2N1 [Example 179, 8-Bromo-4-(3-(pyridin-3-yl)phenyl)-1,3-dihydro-2H-benzo[b][1,4]diazepin-2-one] | 30 | 1.37 | 2.74 | – | – | – | 100 | 0.02 | – | – | – | – | – | – | –
N#Cc1cc(C2=Nc3ccc(Br)cc3NC(=O)C2)ccn1 [Example 182, 4-(8-Bromo-2-oxo-2,3-dihydro-1H-benzo[b][1,4]diazepin-4-yl)picolinonitrile] | – | 0.04 | 0.04 | – | 280 ± 100 | 160 ± 30 | – | 0.04 | decreasing immobility and increasing swimming | – | – | – | – | – | –
N#Cc1cc(C2=Nc3ccc(C(F)(F)F)cc3NC(=O)C2)ccn1 [Example 184, 4-(2-Oxo-8-(trifluoromethyl)-2,3-dihydro-H-benzo[b][1,4]diazepin-4-yl)picolinonitrile] | 97 | 0.41 | 0.49 | – | – | – | 100 | 0.07 | – | – | – | – | – | – | –
O=C1CC(c2ccnc(Br)c2)=Nc2ccc(C(F)(F)F)cc2N1 [Example 191, 4-(2-Bromopyridin-4-yl)-8-(trifluoromethyl)-1,3-dihydro-2H-benzo[b][1,4]diazepin-2-one] | – | 0.18 | 0.25 | – | 1430 ± 460 | 280 ± 60 | – | 0.08 | decreasing immobility and increasing swimming | – | – | – | – | – | –
N[C@@]1(C(=O)O)CO[C@H]2[C@H](C(=O)O)[C@H]21 [LY379268] | – | – | – | – | – | – | – | – | – | dramatically improves the phenotype | enhanced GDNF levels | dose-dependent increase in locomotor activity | did not reverse reserpine-induced akinesia | protected | beneficial effect on neurological disability
